Measured values taken from PubChem BioAssay AID743233 (The Scripps Research Institute Molecular Screening Center, 2013).
Active and inactive are the calls of the source. The rule behind the calls is not given here.

Test system: Galpha16-expressing cells, calcium fluorescence, counterscreen
Assay: nonselective Ga16 antagonists, potency, late-stage follow-up, counter-screen for TAAR1 agonist project, cell-based, fluorescence, dose response (AID 743233)

Row | Compound | IC50
1 | O=C(CCN1CCc2ccccc2CC1)c1ccc2c(c1)OCCO2 | > 29.9 µM (inactive)
2 | CC1(C)CCCN(C(=O)c2coc(=O)c(Br)c2)C1 | > 29.9 µM (inactive)
3 | Nc1nc(Nc2ccccc2)nc2ccccc12 | > 29.9 µM (inactive)
4 | O=C(CCCCl)N1CCc2[nH]c3ccccc3c2C1 | > 29.9 µM (inactive)
5 | CC(=C1C(=O)c2ccccc2C1=O)N1CCc2ccccc2C1 | > 29.9 µM (inactive)
6 | c1ccc(CCn2nnnc2C(c2cccs2)N2CCN(Cc3ccc4c(c3)OCO4)CC2)cc1 (stereo unspecified) | > 29.9 µM (inactive)
7 | Cc1cc(N(C)C)nc(Nc2ccccc2)n1 | > 29.9 µM (inactive)
8 | O=C(CCN1CCC(c2ccccc2)C1)c1ccc2c(c1)OCCO2 (stereo unspecified) | > 29.9 µM (inactive)
9 | O=c1[nH]cc(NCCc2ccccc2)c(=O)[nH]1 | > 29.9 µM (inactive)
10 | Cc1cc(C)n(C(CC(=O)N2CCc3ccccc3C2)C(=O)O)n1 (stereo unspecified) | > 29.9 µM (inactive)
11 | Cc1ccc(NC(=O)CCN2CCc3ccccc3C2)cc1 | > 29.9 µM (inactive)
12 | O=C(Nc1cccnc1)Nc1cccc(F)c1 | > 29.9 µM (inactive)
13 | Cc1[nH]c2ccccc2c1CN1CCc2ccccc2C1 | > 29.9 µM (inactive)
14 | c1ccc2c(c1)CCN(c1nc3cc4c(cc3s1)OCO4)C2 | > 29.9 µM (inactive)
15 | O=C(Nc1ccccc1)Nc1ccncc1 | > 29.9 µM (inactive)
16 | CCOC(=O)C(NC(C)=O)(N1CCc2ccccc2C1)C(F)(F)F (stereo unspecified) | > 29.9 µM (inactive)

Row | Compound | IC50
17 | c1ccc(CCN2CN(CCCN3CCOCC3)c3nc4ccccc4n3C2)cc1 | > 29.9 µM (inactive)
18 | NC(N)=Nc1cc2ccccc2c2ccccc12 | > 29.9 µM (inactive)
19 | O=C(CCN1CCC(c2ccccc2)C1)c1cccs1 (stereo unspecified) | > 29.9 µM (inactive)
20 | O=C(Nc1cccc2ccccc12)N1CCc2ccccc2C1 | > 29.9 µM (inactive)
21 | CC(=NCCc1ccccc1)C1CCOC1=O (stereo unspecified) | > 29.9 µM (inactive)
22 | COc1cc(C(=O)CCN2CCC(c3ccccc3)C2)cc(OC)c1OC (stereo unspecified) | > 29.9 µM (inactive)
23 | NC(N)=NN=Cc1c(Cl)cccc1Cl | > 29.9 µM (inactive)
24 | OCCNc1nc(Nc2cccc(O)c2)nc2ccccc12 | > 29.9 µM (inactive)
25 | Nc1nc(Nc2cccc(F)c2)nc2ccccc12 | > 29.9 µM (inactive)
26 | CCOC(=O)C(NC(=O)CC)(N1CCc2ccccc2C1)C(F)(F)F (stereo unspecified) | > 29.9 µM (inactive)
27 | O=C(Nc1ccncc1)Nc1ccc(F)cc1 | > 29.9 µM (inactive)
28 | c1ccc2c3c([nH]c2c1)CCNC3 | > 29.9 µM (inactive)
29 | O=C(C(=O)N1CCc2ccccc2C1)c1cn(CC(=O)N2CCCCC2)c2ccccc12 | > 29.9 µM (inactive)
30 | OCCNc1nc(Nc2ccc(O)cc2)nc2ccccc12 | > 29.9 µM (inactive)
31 | NCc1c(O)ccc2ccccc12 | > 29.9 µM (inactive)
